# From ChEMBL document CHEMBL5634085, “Design, synthesis and antitrypanosomatid activity of 2-nitroimidazole-3,5-disubstituted isoxazole compounds based on benznidazole” (Eur J Med Chem, 2023)
# Legend:
# [1] = Cytotoxicity against monkey LLC-MK2 cells incubated for 72 hrs by MTT assay; type: toxicity, cell-based, Macaca mulatta; details: rhesus monkey
# Trypanosoma cruzi = test: Antitrypanosomal activity against Trypanosoma cruzi Tulahuen lacZ expressing beta-galactosidase amastigotes infected in monkey LLC-MK2 cells assessed as inhibition of amastigotes pre-infected in cells for 48 hrs followed by compound addition and measured after 72 hrs by CPRG reagent based absorbance analysis; type: functional, organism-based
# [2] = Selectivity index, ratio of CC50 for monkey LLC-MK2 cells to IC50 for Trypanosoma cruzi Tulahuen lacZ expressing beta-galactosidase amastigotes infected monkey LLC-MK2 cells; type: toxicity; details: read-out: Ratio CC50/IC50
# Leishmania amazonensis = test: Antileishmanial activity against Leishmania amazonensis IFLA/BR/1967/PH8 amastigotes infected in mouse peritoneal macrophage assessed as inhibition of parasite growth pre-infected in cells for 4 hrs followed by compound addition and measured after 24 hrs by Giemsa staining based analysis; type: functional, organism-based; details: IFLA/BR/1967/PH8, Peritoneal macrophage
# [3] = Selectivity index, ratio of CC50 for cytotoxicity against monkey LLC-MK2 cells to IC50 for antileishmanial activity against Leishmania amazonensis IFLA/BR/1967/PH8 amastigotes infected in mouse peritoneal macrophage; type: toxicity, cell-based; details: read-out: Ratio CC50/IC50
Structure (SMILES),IC50 (Trypanosoma cruzi) [µM],CC50 at 72 h [1] [µM],selectivity ratio [2],IC50 (Leishmania amazonensis) [µM],selectivity ratio [3]
O=[N+]([O-])c1nccn1Cc1cc(-c2cccnc2)no1,7.8,> 50,> 6.4,73.8,> 0.7
O=[N+]([O-])c1nccn1Cc1cc(-c2ccccn2)no1,7.5,> 50,> 6.7,37.8,> 1.3
O=[N+]([O-])c1nccn1Cc1cc(-c2cccc(Cl)c2)no1,9.3,> 50,> 5.3,10.2,> 4.9
N#Cc1cccc(-c2cc(Cn3ccnc3[N+](=O)[O-])on2)c1,40.4,> 50,> 1.2,36.6,> 1.4
N#Cc1ccc(-c2cc(Cn3ccnc3[N+](=O)[O-])on2)cc1,> 100,> 50,> 0.6,34.6,> 1.4
COc1cc(-c2cc(-c3ccc4c(c3)OCO4)no2)cc(OC)c1OC,–,–,–,1.4,–
N=C(N)c1ccc(OCCCCCOc2ccc(C(=N)N)cc2)cc1 [PENTAMIDINE],–,–,–,16.8,–
COc1ccc(-c2cc(-c3cc(OC)c(OC)c(OC)c3)no2)cc1OC,–,–,–,0.7,–
COc1ccc(-n2cc(-c3cc(OC)c(OC)c(OC)c3)nn2)cc1OC,–,–,–,29.2,–
O=[N+]([O-])c1nccn1Cc1cc(-c2ccc(F)c(F)c2)no1,6.5,> 50,> 7.6,17.7,> 2.8
CSc1ccc(-c2cc(Cn3ccnc3[N+](=O)[O-])on2)cc1,31.4,> 50,> 1.6,22.4,> 2.2
COc1cc(-n2cc(-c3ccc4c(c3)OCO4)nn2)cc(OC)c1OC,–,–,–,4.4,–
O=[N+]([O-])c1nccn1Cc1cc(-c2ccc(N3CCN(c4ccccc4)CC3)cc2)no1,> 100,> 50,> 1,> 100,> 0.5
COc1cccc(-c2cc(Cn3ccnc3[N+](=O)[O-])on2)c1,11.2,> 50,> 4.4,12.5,> 4
O=[N+]([O-])c1nccn1Cc1cc(-c2ccc(N3CCCCC3)cc2)no1,7.5,> 50,> 6.7,31.1,> 1.6
O=[N+]([O-])c1ccc(-c2cc(Cn3ccnc3[N+](=O)[O-])on2)cc1,18.3,46.1,2.5,32.4,1.4
COc1cc(-c2cc(-c3cc(OC)c(OC)c(OC)c3)on2)cc(OC)c1OC,–,–,–,2.9,–
C[C@@H]1[C@H](O)[C@@H](C)/C=C/C=C/C=C/C=C/C=C/C=C/C=C/[C@H](O[C@@H]2O[C@H](C)[C@@H](O)[C@H](N)[C@@H]2O)C[C@@H]2O[C@](O)(C[C@@H](O)C[C@@H](O)[C@H](O)CC[C@@H](O)C[C@@H](O)CC(=O)O[C@H]1C)C[C@H](O)[C@H]2C(=O)O [AMPHOTERICIN B],–,22.8,–,2.3,9.87
O=[N+]([O-])c1nccn1Cc1cc(-c2ccc(OC(F)(F)F)cc2)no1,15.2,> 50,> 3.3,35.6,> 1.4
COc1cc(-c2cn(-c3cc(OC)c(OC)c(OC)c3)nn2)cc(OC)c1OC,–,–,–,9.4,–
O=[N+]([O-])c1nccn1Cc1cc(-c2ccc(C(F)(F)F)cc2)no1,23,18.9,0.8,18,1
Nc1ccc(-c2cc(Cn3ccnc3[N+](=O)[O-])on2)cc1,6.2,> 50,> 8.1,21.7,> 2.3
COc1ccc(-c2cc(-c3cc(OC)c(OC)c(OC)c3)on2)cc1OC,–,–,–,0.4,–
COc1ccc(-c2cn(-c3cc(OC)c(OC)c(OC)c3)nn2)cc1OC,–,–,–,5.6,–

# More lines, in order of falling IC50 (Trypanosoma cruzi), values ahead:
IC50 (Trypanosoma cruzi) [µM],Structure (SMILES),CC50 at 72 h [1] [µM],selectivity ratio [2],IC50 (Leishmania amazonensis) [µM],selectivity ratio [3]
6,COc1cc(OC)cc(-c2cc(Cn3ccnc3[N+](=O)[O-])on2)c1,> 50,> 8.3,10.1,> 4.9
5.3,O=[N+]([O-])c1cccc(-c2cc(Cn3ccnc3[N+](=O)[O-])on2)c1,> 50,> 9.4,35.1,> 1.4
5.1,O=[N+]([O-])c1nccn1Cc1cc(-c2ccc(Br)cc2)no1,43,8.4,17.4,> 2.5
4.6,COc1ccccc1-c1cc(Cn2ccnc2[N+](=O)[O-])on1,> 50,> 10.9,12.7,> 3.9
4,O=[N+]([O-])c1nccn1Cc1cc(-c2ccccc2)no1,> 50,> 12.3,33.1,> 1.5
3.9,O=[N+]([O-])c1nccn1Cc1cc(-c2ccc(N3CCCCCC3)cc2)no1,> 50,> 12.8,25.1,> 1.9
3.7,O=[N+]([O-])c1nccn1Cc1cc(-c2ccc(Cl)cc2Cl)no1,43.2,> 11.4,33.7,1.3
3.3,O=[N+]([O-])c1nccn1Cc1cc(-c2ccc(F)cc2)no1,> 50,> 15.3,24.2,> 2.1
3.1,O=[N+]([O-])c1nccn1Cc1cc(-c2ccncc2)no1,> 50,> 16.3,16.3,> 3
3,COc1ccc(-c2cc(Cn3ccnc3[N+](=O)[O-])on2)cc1O,> 50,> 16.6,17.1,> 2.9
2.8,O=[N+]([O-])c1nccn1Cc1cc(-c2ccc(N3CCOCC3)cc2)no1,> 50,> 18,54.1,> 0.9
2.3,O=[N+]([O-])c1nccn1Cc1cc(-c2ccc(N3CCCC3)cc2)no1,> 50,> 21.7,9.9,> 5
2.2,O=[N+]([O-])c1nccn1Cc1cc(-c2ccc(Cl)c(Cl)c2)no1,> 50,> 22.2,18.9,> 2.6
1.9,COc1ccc(-c2cc(Cn3ccnc3[N+](=O)[O-])on2)cc1,> 50,> 25.6,17.3,> 2.9
1.9,COc1cc(-c2cc(Cn3ccnc3[N+](=O)[O-])on2)cc(OC)c1OC,> 50,> 25.9,14.6,> 3.4
1,COc1ccc(-c2cc(Cn3ccnc3[N+](=O)[O-])on2)cc1Cl,> 50,> 49,31.3,> 1.6
